Legend:
[1] = target: T1, Aurora-A (Mus musculus, UniProt P97477); test: Aurora-A kinase screening assay (33P-ATP FlashPlate); type: biochemical; conditions: 10 μM ATP, 1 hr at 30° C;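 also: His-tagged mouse Aurora-A phosphorylating a biotinylated peptide captured on streptavidin plates, read as 33P uptake by scintillation counting, 1% DMSO, inhibition scaled between per-plate maximum and minimum signals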
T1 construct: polyhistidine (N)
T1 sequence (P97477 1-395): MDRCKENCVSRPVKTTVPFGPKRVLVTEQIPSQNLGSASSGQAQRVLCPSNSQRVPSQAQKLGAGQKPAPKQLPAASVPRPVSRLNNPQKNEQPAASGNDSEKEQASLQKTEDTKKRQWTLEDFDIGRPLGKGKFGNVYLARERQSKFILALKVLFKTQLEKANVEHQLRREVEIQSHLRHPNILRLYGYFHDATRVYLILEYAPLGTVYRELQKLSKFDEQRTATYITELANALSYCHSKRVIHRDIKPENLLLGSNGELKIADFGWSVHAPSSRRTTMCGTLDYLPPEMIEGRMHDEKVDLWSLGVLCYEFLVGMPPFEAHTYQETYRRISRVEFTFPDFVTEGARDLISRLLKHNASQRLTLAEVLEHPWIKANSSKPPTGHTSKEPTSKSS

[2] = target: T2, VEGF-R2 (Rattus norvegicus, UniProt O08775); test: VEGF-R2 kinase screening assay (33P-ATP FlashPlate); type: biochemical; conditions: rat VEGF-R2 kinase domain; 10 μM ATP; 1 hr at 30° C;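 also: Read-out is ³³P incorporation from ³³P-γ-ATP into biotinylated peptide substrate captured on streptavidin FlashPlate, counted by scintillation, 1% DMSO final, inhibition scaled between per-plate maximum and minimum signals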
T2 construct: polyhistidine (N)
T2 sequence (O08775 786-1343): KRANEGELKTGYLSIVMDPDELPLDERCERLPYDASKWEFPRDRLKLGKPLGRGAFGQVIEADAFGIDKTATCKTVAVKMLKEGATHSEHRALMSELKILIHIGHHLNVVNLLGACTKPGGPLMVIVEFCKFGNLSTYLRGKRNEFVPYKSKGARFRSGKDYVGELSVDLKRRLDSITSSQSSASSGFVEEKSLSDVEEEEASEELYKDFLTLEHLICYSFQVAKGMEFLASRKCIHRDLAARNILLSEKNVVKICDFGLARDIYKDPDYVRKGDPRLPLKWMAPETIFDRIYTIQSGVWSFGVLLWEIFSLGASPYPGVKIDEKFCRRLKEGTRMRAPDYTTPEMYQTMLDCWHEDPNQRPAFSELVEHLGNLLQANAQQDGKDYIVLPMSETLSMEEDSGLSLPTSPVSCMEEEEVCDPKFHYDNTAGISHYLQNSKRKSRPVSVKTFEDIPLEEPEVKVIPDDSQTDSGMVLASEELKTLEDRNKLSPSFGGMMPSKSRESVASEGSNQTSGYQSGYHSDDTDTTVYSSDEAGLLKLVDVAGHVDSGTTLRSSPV

[3] = target: T3, RET (Homo sapiens, UniProt P07949); test: RET kinase screening assay (33P-ATP FlashPlate); type: biochemical; conditions: human RET kinase domain; 10 μM ATP; 1 hr at 30° C;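 also: biotinylated peptide substrate captured on streptavidin FlashPlate, 33P phosphate transfer read by scintillation counting, 1% DMSO, lower incorporation means inhibition, percent relative to per-plate maximum and minimum signals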
T3 construct: polyhistidine (N)
T3 sequence (P07949 658-1114 limits assumed): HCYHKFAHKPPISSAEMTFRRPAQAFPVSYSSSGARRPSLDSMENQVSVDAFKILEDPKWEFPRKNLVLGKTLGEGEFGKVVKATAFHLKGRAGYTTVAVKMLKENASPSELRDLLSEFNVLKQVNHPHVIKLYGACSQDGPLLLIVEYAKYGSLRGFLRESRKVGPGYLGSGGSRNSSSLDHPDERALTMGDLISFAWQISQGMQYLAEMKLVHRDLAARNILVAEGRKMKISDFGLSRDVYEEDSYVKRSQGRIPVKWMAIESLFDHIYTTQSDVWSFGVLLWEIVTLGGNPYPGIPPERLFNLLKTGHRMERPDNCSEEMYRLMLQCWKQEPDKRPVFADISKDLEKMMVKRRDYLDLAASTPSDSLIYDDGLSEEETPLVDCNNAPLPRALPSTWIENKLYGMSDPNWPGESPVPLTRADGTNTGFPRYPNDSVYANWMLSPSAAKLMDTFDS

[4] = tested on: HeLa cervical adenocarcinoma; test: Cell Proliferation Inhibition Assay (14C-thymidine incorporation), HeLa; type: cell-based; conditions: Homo sapiens, HeLa, HeLa cells;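 also: test compound in DMSO added to cells seeded in scintillating 96-well plates, DMSO-only wells as control, uptake of methyl 14C-thymidine into new DNA counted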

| IC50 [1] [nM] | IC50 [2] [nM] | IC50 [3] [nM] | IC50 [4] [nM] | Structure (SMILES) |
| --- | --- | --- | --- | --- |
| ~1000 | > 100 | > 100000 |  | CNCc1cncc(-c2cnc3[nH]nc(-c4nc5cc(OC(F)(F)F)ccc5[nH]4)c3c2)c1 [Cpd 96, methyl-{5-[3-(5-trifluoromethoxy-1H-benzoimidazol-2-yl)-1H-pyrazolo[3,4-b]pyridin-5-yl]-pyridin-3-ylmethyl}-amine] |
| 356 | > 100 | ~1000 | 34.2 | CCNCc1cncc(-c2cnc3[nH]nc(-c4nc5cc(OC)ccc5[nH]4)c3c2)c1 [Cpd 101, ethyl-{5-[3-(5-methoxy-1H-benzoimidazol-2-yl)-1H-pyrazolo[3,4-b]pyridin-5-yl]-pyridin-3-ylmethyl}-amine] |
